{"source": "paper PMC4501059", "about": "“Responding to the challenge of untreatable gonorrhea: ETX0914, a first-in-class agent with a distinct mechanism-of-action against bacterial Type II topoisomerases” (Scientific Reports, 2015)", "key": {"S. aureus ARC516": {"system": "S. aureus ARC516", "assay": "MIC (CLSI broth microdilution)", "assay_type": "cell-based"}, "N. gonorrhoeae ATCC49226": {"system": "N. gonorrhoeae ATCC49226", "assay": "MIC (CLSI agar dilution)", "assay_type": "cell-based"}, "[1]": {"assay": "hepatocyte intrinsic clearance", "assay_type": "in vitro ADME", "details": "male, Han-Wister, rat hepatocytes", "source_text": "(§1) Supplement srep11827-s1.doc, table 4 | column: Han-Wister rat (male)"}, "[2]": {"assay": "hepatocyte intrinsic clearance", "assay_type": "in vitro ADME", "details": "male, Beagle, dog hepatocytes", "source_text": "Supplement srep11827-s1.doc, table 4 | column: Beagle dog (male)"}, "[3]": {"assay": "plasma protein binding, rat", "assay_type": "in vitro ADME", "details": "in vitro at 1-50 µM", "source_text": "as §1"}, "Iks/Kv7.1": {"biological_target": "Iks/Kv7.1 (Homo sapiens, UniProt P51787)", "sequence (P51787 whole entry)": "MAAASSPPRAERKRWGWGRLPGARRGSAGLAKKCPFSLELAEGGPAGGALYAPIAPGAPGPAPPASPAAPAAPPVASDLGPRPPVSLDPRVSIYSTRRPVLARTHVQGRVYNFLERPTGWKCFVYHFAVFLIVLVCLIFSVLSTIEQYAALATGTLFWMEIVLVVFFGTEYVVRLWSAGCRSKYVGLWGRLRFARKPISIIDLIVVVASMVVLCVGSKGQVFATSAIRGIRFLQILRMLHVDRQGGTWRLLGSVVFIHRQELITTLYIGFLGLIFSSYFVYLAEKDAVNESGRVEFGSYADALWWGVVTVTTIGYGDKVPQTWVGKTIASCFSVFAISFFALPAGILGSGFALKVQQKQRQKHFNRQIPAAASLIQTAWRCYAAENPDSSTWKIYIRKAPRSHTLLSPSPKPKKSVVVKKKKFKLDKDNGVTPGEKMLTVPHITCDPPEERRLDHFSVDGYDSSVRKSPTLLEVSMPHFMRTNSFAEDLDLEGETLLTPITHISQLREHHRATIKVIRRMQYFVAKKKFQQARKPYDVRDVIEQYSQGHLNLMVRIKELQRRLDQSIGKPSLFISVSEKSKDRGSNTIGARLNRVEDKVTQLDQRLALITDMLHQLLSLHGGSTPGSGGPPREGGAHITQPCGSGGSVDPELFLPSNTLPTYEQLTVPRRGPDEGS", "assay": "In vitro ion channel function", "assay_type": "cell-based", "details": "Iks/Kv7.1 IC50, Slowly activating K^+ delayed rectifier", "source_text": "(§2) Supplement srep11827-s1.doc, table 3 | column: Table S2: In vitro ion channel function IC50 (µM)"}, "Ito/Kv4.3": {"biological_target": "T1, Ito/Kv4.3 (Homo sapiens, UniProt Q9UK17)", "T1 sequence (Q9UK17 1-655)": "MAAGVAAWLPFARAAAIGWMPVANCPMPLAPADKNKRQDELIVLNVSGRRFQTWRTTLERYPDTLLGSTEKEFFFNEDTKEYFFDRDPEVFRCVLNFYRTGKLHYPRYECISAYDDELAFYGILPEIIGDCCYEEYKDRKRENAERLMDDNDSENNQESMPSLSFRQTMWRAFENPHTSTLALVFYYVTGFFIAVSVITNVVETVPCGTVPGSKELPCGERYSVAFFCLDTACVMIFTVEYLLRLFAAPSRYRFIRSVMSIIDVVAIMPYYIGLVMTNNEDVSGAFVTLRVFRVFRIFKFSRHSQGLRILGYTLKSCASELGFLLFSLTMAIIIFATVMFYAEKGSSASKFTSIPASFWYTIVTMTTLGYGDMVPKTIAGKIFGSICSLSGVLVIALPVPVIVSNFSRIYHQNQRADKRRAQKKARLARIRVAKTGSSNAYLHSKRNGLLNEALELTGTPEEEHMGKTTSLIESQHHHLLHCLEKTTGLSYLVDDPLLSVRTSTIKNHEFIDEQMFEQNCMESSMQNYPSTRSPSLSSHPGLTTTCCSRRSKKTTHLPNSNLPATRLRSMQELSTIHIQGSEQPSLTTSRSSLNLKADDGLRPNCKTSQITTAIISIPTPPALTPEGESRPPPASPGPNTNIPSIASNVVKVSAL", "assay": "In vitro ion channel function", "assay_type": "cell-based", "details": "Ito/Kv4.3 IC50, Transient outward K^+ early repolarization", "source_text": "as §2"}, "Kv1.5": {"biological_target": "Kv1.5 (Homo sapiens, UniProt P22460)", "sequence (P22460 whole entry)": "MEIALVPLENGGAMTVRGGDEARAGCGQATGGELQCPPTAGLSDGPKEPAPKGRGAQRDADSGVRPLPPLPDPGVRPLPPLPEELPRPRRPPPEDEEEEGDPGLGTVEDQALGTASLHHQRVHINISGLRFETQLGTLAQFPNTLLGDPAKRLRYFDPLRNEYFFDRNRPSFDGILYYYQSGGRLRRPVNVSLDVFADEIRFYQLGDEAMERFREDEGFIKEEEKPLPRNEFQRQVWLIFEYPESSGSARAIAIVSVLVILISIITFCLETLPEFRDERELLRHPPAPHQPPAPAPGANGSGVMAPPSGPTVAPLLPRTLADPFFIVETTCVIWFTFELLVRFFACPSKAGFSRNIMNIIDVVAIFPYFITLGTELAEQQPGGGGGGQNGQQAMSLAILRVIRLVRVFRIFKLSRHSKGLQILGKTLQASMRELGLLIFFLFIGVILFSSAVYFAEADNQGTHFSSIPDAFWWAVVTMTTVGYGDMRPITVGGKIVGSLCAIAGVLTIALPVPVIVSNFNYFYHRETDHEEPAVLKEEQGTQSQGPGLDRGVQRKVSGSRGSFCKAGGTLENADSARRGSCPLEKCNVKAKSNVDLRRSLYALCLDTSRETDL", "assay": "In vitro ion channel function", "assay_type": "cell-based", "details": "Ikr/Kv1.5 IC50, Rapidly activating K^+ delayed rectifier", "source_text": "as §2"}, "hCav1.2": {"biological_target": "hCav1.2 (Homo sapiens, UniProt Q13936)", "assay": "In vitro ion channel function", "assay_type": "cell-based", "details": "hCav1.2 IC50, Ca^2+ entry into excitable cells", "source_text": "as §2"}, "hNav1.5": {"biological_target": "hNav1.5 (Homo sapiens, UniProt Q14524)", "sequence (Q14524 whole entry)": "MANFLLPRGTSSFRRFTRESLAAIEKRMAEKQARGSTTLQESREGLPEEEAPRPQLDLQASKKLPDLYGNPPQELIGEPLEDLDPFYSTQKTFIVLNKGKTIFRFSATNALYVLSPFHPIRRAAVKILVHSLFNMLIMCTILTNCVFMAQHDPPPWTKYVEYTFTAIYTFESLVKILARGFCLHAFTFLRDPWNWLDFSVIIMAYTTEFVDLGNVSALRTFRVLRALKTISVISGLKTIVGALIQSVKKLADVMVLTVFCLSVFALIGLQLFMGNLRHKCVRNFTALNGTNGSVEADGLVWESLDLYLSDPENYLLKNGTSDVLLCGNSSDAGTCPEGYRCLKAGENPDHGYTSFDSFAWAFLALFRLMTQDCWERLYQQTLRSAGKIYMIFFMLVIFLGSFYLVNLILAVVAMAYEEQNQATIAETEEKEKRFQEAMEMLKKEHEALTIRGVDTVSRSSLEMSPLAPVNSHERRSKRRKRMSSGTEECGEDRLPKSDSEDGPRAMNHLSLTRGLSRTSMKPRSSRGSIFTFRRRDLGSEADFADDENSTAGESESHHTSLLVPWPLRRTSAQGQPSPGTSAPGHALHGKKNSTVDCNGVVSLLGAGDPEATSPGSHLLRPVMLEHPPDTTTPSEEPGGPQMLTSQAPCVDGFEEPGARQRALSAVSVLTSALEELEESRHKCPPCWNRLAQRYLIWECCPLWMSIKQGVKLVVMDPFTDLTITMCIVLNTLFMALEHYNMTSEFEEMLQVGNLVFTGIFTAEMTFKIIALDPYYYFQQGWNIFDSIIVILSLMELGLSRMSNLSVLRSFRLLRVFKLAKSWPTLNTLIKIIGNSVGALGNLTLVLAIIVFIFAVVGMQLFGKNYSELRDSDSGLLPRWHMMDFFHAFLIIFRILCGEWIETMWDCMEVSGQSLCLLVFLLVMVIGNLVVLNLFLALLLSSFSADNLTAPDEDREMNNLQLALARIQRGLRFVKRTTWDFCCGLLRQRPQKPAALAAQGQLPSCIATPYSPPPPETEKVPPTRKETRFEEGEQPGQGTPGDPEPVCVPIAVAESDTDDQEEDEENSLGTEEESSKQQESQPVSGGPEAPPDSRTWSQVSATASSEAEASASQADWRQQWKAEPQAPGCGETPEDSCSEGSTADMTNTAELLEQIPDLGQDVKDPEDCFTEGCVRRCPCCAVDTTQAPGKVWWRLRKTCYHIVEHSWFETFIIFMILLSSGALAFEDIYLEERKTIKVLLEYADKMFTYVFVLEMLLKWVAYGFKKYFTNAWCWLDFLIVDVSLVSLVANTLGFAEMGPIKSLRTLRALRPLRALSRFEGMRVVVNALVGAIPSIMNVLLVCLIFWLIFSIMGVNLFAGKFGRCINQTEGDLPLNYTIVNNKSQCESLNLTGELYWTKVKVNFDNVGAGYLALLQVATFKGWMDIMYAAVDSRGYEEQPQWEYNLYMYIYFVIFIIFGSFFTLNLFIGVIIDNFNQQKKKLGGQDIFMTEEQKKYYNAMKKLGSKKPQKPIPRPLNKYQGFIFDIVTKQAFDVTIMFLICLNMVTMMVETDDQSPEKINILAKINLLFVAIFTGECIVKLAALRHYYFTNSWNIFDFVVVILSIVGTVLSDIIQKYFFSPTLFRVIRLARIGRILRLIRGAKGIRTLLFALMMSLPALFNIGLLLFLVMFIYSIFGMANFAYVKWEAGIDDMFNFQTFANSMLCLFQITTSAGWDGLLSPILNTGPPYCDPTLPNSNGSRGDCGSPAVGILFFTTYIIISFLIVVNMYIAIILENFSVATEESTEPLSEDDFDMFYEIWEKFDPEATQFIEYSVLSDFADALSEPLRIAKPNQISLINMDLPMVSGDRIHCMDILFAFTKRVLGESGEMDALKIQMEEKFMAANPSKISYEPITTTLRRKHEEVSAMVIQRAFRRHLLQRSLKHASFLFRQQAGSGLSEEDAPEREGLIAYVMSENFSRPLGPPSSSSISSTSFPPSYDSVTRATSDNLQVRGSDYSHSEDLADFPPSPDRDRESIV", "assay": "In vitro ion channel function", "assay_type": "cell-based", "details": "hNav1.5 IC50, Initiation of cardiac action potential/QRS interval", "source_text": "as §2"}, "USA300 NRS384": {"system": "USA300 NRS384", "assay": "MIC (modal, CLSI broth microdilution)", "assay_type": "cell-based, S. aureus", "details": "Staphylococcus aureus, read-out: Modal MIC"}, "S. aureus DNA gyrase": {"biological_target": "S. aureus DNA gyrase (Staphylococcus aureus, UniProt P0A0K8+P20831)", "sequence (P0A0K8 whole entry)": "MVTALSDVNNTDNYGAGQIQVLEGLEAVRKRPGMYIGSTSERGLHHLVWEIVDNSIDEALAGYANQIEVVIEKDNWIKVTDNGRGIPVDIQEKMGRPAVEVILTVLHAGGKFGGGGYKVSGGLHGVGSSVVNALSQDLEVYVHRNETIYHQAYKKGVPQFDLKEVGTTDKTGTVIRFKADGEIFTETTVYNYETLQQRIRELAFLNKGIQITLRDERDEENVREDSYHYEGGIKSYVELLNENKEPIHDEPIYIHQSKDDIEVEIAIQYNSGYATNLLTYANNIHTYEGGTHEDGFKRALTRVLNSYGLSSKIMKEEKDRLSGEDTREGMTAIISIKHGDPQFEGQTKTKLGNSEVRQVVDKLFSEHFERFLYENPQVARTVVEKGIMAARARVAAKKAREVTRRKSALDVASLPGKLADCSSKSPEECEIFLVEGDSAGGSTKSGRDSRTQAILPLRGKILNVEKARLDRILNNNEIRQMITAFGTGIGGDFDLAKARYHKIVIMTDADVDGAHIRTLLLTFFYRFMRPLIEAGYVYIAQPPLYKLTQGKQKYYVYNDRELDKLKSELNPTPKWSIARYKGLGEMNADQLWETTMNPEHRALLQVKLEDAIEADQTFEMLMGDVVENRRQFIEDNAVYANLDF", "sequence (P20831 whole entry)": "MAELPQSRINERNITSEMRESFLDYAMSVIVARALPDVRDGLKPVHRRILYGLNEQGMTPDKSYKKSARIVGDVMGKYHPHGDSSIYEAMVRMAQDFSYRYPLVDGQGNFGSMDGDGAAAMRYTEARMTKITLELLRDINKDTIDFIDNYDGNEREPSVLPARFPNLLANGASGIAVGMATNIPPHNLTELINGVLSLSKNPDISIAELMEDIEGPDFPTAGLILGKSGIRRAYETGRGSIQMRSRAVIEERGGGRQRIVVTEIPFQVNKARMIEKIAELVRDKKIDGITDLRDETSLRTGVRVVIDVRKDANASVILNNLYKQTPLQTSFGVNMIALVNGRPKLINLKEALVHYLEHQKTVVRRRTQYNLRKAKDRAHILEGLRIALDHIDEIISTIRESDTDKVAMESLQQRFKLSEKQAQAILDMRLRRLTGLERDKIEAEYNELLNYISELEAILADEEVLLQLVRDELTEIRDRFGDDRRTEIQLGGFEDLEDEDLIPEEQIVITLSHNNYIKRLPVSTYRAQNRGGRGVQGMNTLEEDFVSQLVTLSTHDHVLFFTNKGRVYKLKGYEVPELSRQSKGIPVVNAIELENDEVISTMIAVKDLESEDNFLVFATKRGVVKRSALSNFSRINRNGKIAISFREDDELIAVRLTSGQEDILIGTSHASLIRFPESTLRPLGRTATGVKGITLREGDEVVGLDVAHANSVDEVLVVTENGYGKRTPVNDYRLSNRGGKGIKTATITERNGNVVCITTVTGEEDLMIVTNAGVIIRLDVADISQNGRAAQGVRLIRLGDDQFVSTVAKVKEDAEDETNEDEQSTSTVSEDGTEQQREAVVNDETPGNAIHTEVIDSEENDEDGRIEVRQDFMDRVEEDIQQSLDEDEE", "details": "free Mg2+ 0.06 μM to 8 mM"}, "Neisseria gonorrhoeae": {"system": "Neisseria gonorrhoeae", "details": "cited from earlier work"}, "Streptococcus pyogenes": {"system": "Streptococcus pyogenes", "set-up": "method as in ref 2 (supplement)", "details": "1358 tested; ref 2 (supplement); cited from earlier work"}, "Streptococcus agalactiae": {"system": "Streptococcus agalactiae", "set-up": "method as in ref 2 (supplement)", "details": "441 tested; ref 2 (supplement); cited from earlier work"}, "Haemophilus influenzae": {"system": "Haemophilus influenzae", "set-up": "method as in ref 2 (supplement)", "details": "352 tested; ref 2 (supplement); cited from earlier work"}, "Chlamydia trachomatis": {"system": "Chlamydia trachomatis", "set-up": "method as in ref 3 (supplement)", "details": "10 tested; ref 3 (supplement); cited from earlier work"}, "Ureaplasma spp.": {"system": "Ureaplasma spp.", "set-up": "method as in ref 3 (supplement)", "details": "21 tested; ref 3 (supplement); cited from earlier work"}, "S. aureus": {"system": "S. aureus", "details": "4X MIC, various strains; cited from earlier work"}, "[4]": {"assay": "plasma protein binding, mouse", "details": "in vitro at 1-50 µM"}, "[5]": {"assay": "Human plasma protein binding (PPB)", "details": "plasma"}, "[6]": {"assay": "CV dog telemetry (single dose, iv)", "details": "for Cmax: plasma"}, "N. gonorrhoeae": {"system": "N. gonorrhoeae", "assay": "clinical PK/PD magnitude, gonococcal infection"}, "[7]": {"assay": "comparative haematology analysis in the rat, oral dosing", "details": "for AUC: Han Wistar, in vivo, po; for AUC / haematology versus vehicle control: rat; for haematology versus vehicle control: 28 d"}, "[8]": {"details": "473 tested, ref 4-6 (supplement)"}}, "note": "Like-named read-outs stand apart in the source and are kept apart here.", "data": [{"smiles": "C[C@@H]1CN2c3c(cc4c(N5C(=O)OC[C@@H]5C)noc4c3F)CC3(C(=O)NC(=O)NC3=O)[C@H]2[C@H](C)O1", "note": "[ETX0914]", "values": [{"measurement": "MIC: S. aureus ARC516", "setting": "S. aureus ARC516", "result": 0.125, "unit": "µg/mL"}, {"measurement": "MIC", "setting": "S. aureus ARC516; Staphylococcus aureus, MSSA, read-out: Modal MIC", "result": 0.0625, "unit": "µg/mL"}, {"measurement": "MIC: N. gonorrhoeae ATCC49226", "setting": "N. gonorrhoeae ATCC49226", "result": 0.125, "unit": "µg/mL"}, {"measurement": "hepatocyte CLint at 1 µM", "setting": "[1]", "result": 10, "unit": "µL/min/1e6 cells"}, {"measurement": "hepatocyte CLint at 1 µM", "setting": "[2]", "result": 3.8, "unit": "µL/min/1e6 cells"}, {"measurement": "PPB (%free)", "setting": "[3]", "result": "19.1±1.1", "unit": "%free"}, {"measurement": "IC50", "setting": "Iks/Kv7.1", "result": "> 333", "unit": "µM"}, {"measurement": "IC50", "setting": "Ito/Kv4.3", "result": 216, "unit": "µM"}, {"measurement": "IC50", "setting": "Kv1.5", "result": "> 333", "unit": "µM"}, {"measurement": "IC50", "setting": "hCav1.2", "result": 326, "unit": "µM"}, {"measurement": "IC50", "setting": "hNav1.5", "result": "> 333", "unit": "µM"}, {"measurement": "MIC", "setting": "USA300 NRS384", "result": 0.25, "unit": "µg/mL"}, {"measurement": "re-ligation of inhibitor-induced cleaved DNA on removal of Mg2+", "setting": "S. aureus DNA gyrase", "result": "re-ligation remained blocked"}, {"measurement": "re-ligation of inhibitor-induced cleaved DNA on removal of Mg2+", "setting": "S. aureus DNA gyrase; listed as AZD0914", "result": "No ligation is observed"}, {"measurement": "MIC90", "setting": "Neisseria gonorrhoeae; [8]", "result": "0.125^4-6 µg/ml"}, {"measurement": "MIC Range", "setting": "Neisseria gonorrhoeae; [8]", "result": "0.004 to 0.25", "unit": "µg/mL"}, {"measurement": "MIC90, gonococcal infection (N. gonorrhoeae)", "setting": "Neisseria gonorrhoeae; Table 2, first entry of the cell (ciprofloxacin: 250 mg UID line)", "result": 0.12, "unit": "µg/mL"}, {"measurement": "MIC90", "setting": "Streptococcus pyogenes", "result": "0.25^2 µg/ml"}, {"measurement": "MIC Range", "setting": "Streptococcus pyogenes", "result": "≤ 0.015 to 0.5", "unit": "µg/mL"}, {"measurement": "MIC90", "setting": "Streptococcus agalactiae", "result": "0.25^2 µg/ml"}, {"measurement": "MIC Range", "setting": "Streptococcus agalactiae", "result": "0.03 to 0.5", "unit": "µg/mL"}, {"measurement": "MIC90", "setting": "Haemophilus influenzae", "result": "0.5^2 µg/ml"}, {"measurement": "MIC Range", "setting": "Haemophilus influenzae", "result": "0.03 to 2.0", "unit": "µg/mL"}, {"measurement": "MIC90", "setting": "Chlamydia trachomatis", "result": "0.25^3 µg/ml"}, {"measurement": "MIC Range", "setting": "Chlamydia trachomatis", "result": "0.06 to 0.5", "unit": "µg/mL"}, {"measurement": "MIC90", "setting": "Ureaplasma spp.", "result": "1.0^3 µg/ml"}, {"measurement": "MIC Range", "setting": "Ureaplasma spp.", "result": "0.125 to 2", "unit": "µg/mL"}, {"measurement": "frequency of resistance", "setting": "S. aureus", "result": "< 1.1 × 10^−9"}, {"measurement": "PPB (%free)", "setting": "[4]", "result": 22.1, "unit": "%free"}, {"measurement": "PPB (%free)", "setting": "[4]; listed as AZD0914", "result": "22.1±0.3", "unit": "%free"}, {"measurement": "fraction unbound", "setting": "[5]", "result": 0.17}, {"measurement": "NOEL", "setting": "[6]; CV dog telemetry, single dose, iv", "result": 50, "unit": "mg/kg/day"}, {"measurement": "cardiovascular effects", "setting": "[6]; IV telemetry dog study, 100 mg/kg", "result": "decreases in blood pressure, contractility and PR interval and an increase in the heart rate"}, {"measurement": "other ECG intervals", "setting": "[6]; dog", "result": "no changes to other ECG intervals including QTc or QRS"}, {"measurement": "Cmax", "setting": "[6]; dog, iv, 50 mg/kg", "result": 63, "unit": "µg/mL"}, {"measurement": "Cmax", "setting": "[6]; dog, iv, 100 mg/kg", "result": 160, "unit": "µg/mL"}, {"measurement": "Salient Pathology Findings", "setting": "[6]; single dose iv, 100 mg/kg", "result": "Emesis Increase in cardiac contractility\\relaxation and heart rate Decrease in systolic & diastoloic blood pressure Orthostatic hypertension"}, {"measurement": "predicted efficacious mean AUC in humans", "setting": "N. gonorrhoeae", "result": 49000, "unit": "ng·h/mL"}, {"measurement": "AUC", "setting": "[7]; 200 mg/kg", "result": "1100 ± 130", "unit": "µM·h"}, {"measurement": "AUC", "setting": "[7]; 500 mg/kg", "result": "2460 ± 470", "unit": "µM·h"}, {"measurement": "AUC", "setting": "[7]; 1000 mg/kg", "result": "3820 ± 650", "unit": "µM·h"}, {"measurement": "platelet count", "setting": "[7]; data not shown", "result": "no significant changes in platelet count"}, {"measurement": "haematology versus vehicle control", "setting": "[7]; 2 lower doses (200, 500 mg/kg)", "result": "within statistical equivalence of the vehicle control"}, {"measurement": "haematology versus vehicle control", "setting": "[7]; highest dose (1000 mg/kg)", "result": "statistical elevation in reticulocytes, lymphocytes and white blood cells"}]}]}
